Measurements from patent EP0782988A1, “INDOLE DERIVATIVES” (KYOWA HAKKO KOGYO CO., LTD., priority 1995, dated 1997).

Tested on: ovariectomized rats
Assay: Inhibitory effect on the increase of urinary hydroxyproline excretion by ovariectomy (Test Example 1)
Type: in vivo, SD strain rats
Conditions: Rattus norvegicus, po, 336 h; ovariectomized female SD rats; test compound 10 mg/kg suspended in 0.3% Tween, orally once a day for two weeks; 24 h urine, hydroxyproline/creatinine molar ratio; versus ovariectomized control and sham-operated rats; read-out: Inhibition rate of increase of the amount of urinary hydroxyproline excretion
Method: The inhibitory effect of the compounds of the present application on bone resorption was determined by their inhibitory effect on the excretion of urinary hydroxyproline which is elevated by ovariectomy of the animals tested, according to the report of Kalu et al. [Bone and Mineral., 14, 175 (1991)].
Test Example 1: Inhibitory effect on the increase of urinary hydroxyproline excretion by ovariectomy
12-weeks-old female SD strain rats (Japan Clea Co., Ltd.) were acclimated for 1 week during which they were given tap water and a standard diet (F2; Funabashi Farmas) ad libitum. The experiment was carried out using the rats weighing 270-310 g. After the animals were subjected to sham operation or bilateral ovariectomy, they were allowed free access to water passed through ion exchange resin instead of tap water, and were housed in individual cages. The test compound (10 mg/kg) was suspended in 0.3% Tween, and the obtained suspension was orally administered to the ovariectomized rats once a day for two weeks starting from the day following ovariectomy (0.5 ml/100 g body weight). 0.3% Tween was similarly administered to sham-operated rats and ovariectomized control rats. After the final administration, the rats were placed in individual metabolic cages and fasted during 24 hours, and urine was collected. The volume of the collected urine was measured and the urine was centrifuged at 3,000 rpm for 15 min at 4°C. The concentration of hydroxyproline in the supernatant was measured by the method of Ikeda et al. [Ann. Rep. Tokyo Metr. Res. Lab. P. H., 36, 277-282 (1985)] and the concentration of creatinine in the supernatant was measured with creatinine test WAKO (Wako Pure Chem.) The amount of urinary hydroxyproline excretion was expressed by the molar ratio of the amount of hydroxyproline to the amount of creatinine. The rate of inhibition on increase of the amount of urinary hydroxyproline excretion in ovariectomized rats treated with the test compound compared to that of the control group was calculated using the following equation. Inhibition rate (%) = [(P1 - P2)/(P1 - P3)] x 100 [formula] • P1 : The amount of urinary hydroxyproline excretion in ovariectomized rats treated with 0.3% Tween (µmol/mmol). • P2 : The amount of urinary hydroxyproline excretion in ovariectomized rats treated with the test compound (µmol/mmol). • P3 : The amount of urinary hydroxyproline in sham-operated rats treated with 0.3% Tween (µmol/mmol).

| SMILES | inhibition in vivo at 10 mg/kg [%] |
| --- | --- |
| CN(C)CCn1c(C(=O)NCC2CCCO2)c(C(c2ccc(O)cc2)c2ccc(O)cc2)c2ccccc21 (stereo not drawn) [Compound 37, N-(2-Tetrahydrofuranylmethyl)-3-[bis(4-hydroxyphenyl)methyl]-1-(2-dimethylaminoethyl)indole-2-carboxamide] | 100 |
| CN(C)CCn1c(C(=O)NCCCN2CCOCC2)c(C(c2ccc(O)cc2)c2ccc(O)cc2)c2ccccc21 [Compound 27, N-(3-Morpholinopropyl)-3-[bis(4-hydroxyphenyl)methyl]-1-(2-dimethylaminoethyl)indole-2-carboxamide] | 30 |
| CN(C)CCn1c(C(=O)NCc2ccncc2)c(C(c2ccc(O)cc2)c2ccc(O)cc2)c2ccccc21 [Compound 30, N-(4-Pyridylmethyl)-3-[bis(4-hydroxyphenyl)methyl]-1-(2-dimethylaminoethyl)indole-2-carboxamide] | 100 |
| CN(C)CCn1c(C(=O)NCCc2ccncc2)c(C(c2ccc(O)cc2)c2ccc(O)cc2)c2ccccc21 [Compound 32, N-[2-(4-Pyridyl)ethyl]-3-[bis(4-hydroxyphenyl)methyl]-1-(2-dimethylaminoethyl)indole-2-carboxamide] | 100 |
| CCN1CCCC1CNC(=O)c1c(C(c2ccc(O)cc2)c2ccc(O)cc2)c2ccccc2n1CCN(C)C (stereo not drawn) [Compound 33, N-[(1-Ethyl-2-pyrrolidinyl)methyl]-3-[bis(4-hydroxyphenyl)methyl]-1-(2-dimethylaminoethyl)indole-2-carboxamide] | 100 |
| CN(C)CCn1c(C(=O)NCc2cccnc2)c(C(c2ccc(O)cc2)c2ccc(O)cc2)c2ccccc21 [Compound 29, N-(3-Pyridylmethyl)-3-[bis(4-hydroxyphenyl)methyl]-1-(2-dimethylaminoethyl)indole-2-carboxamide] | 30 |
| CN(C)CCn1c(C(=O)NCCN2CCCCC2)c(C(c2ccc(O)cc2)c2ccc(O)cc2)c2ccccc21 [Compound 25, N-(2-Piperidinoethyl)-3-[bis(4-hydroxyphenyl)methyl]-1-(2-dimethylaminoethyl)indole-2-carboxamide] | 100 |
| CN(C)CCn1c(C(=O)NCCC2CCCN2C)c(C(c2ccc(O)cc2)c2ccc(O)cc2)c2ccccc21 (stereo not drawn) [Compound 34, N-[2-(1-Methyl-2-pyrrolidinyl)ethyl]-3-[bis(4-hydroxyphenyl)methyl]-1-(2-dimethylaminoethyl)indole-2-carboxamide] | 100 |
| CN(C)CCN(C)C(=O)c1c(C(c2ccc(O)cc2)c2ccc(O)cc2)c2ccccc2n1CCN(C)C [Compound 22, N-(2-Dimethylaminoethyl)-N-methyl-3-[bis(4-hydroxyphenyl)methyl]-1-(2-dimethylaminoethyl)indole-2-carboxamide] | 100 |
